US20110165094A1, “USE OF VITAMIN E OR DERIVATIVES THEREOF FOR THE CONTROL OF ARTHROPODS” (BIO.LO.GA S.R.L., priority 2008, published 2011)

System: Pediculus capitis
Test: Test 3: comparison of Example 1 formulation with 100% cyclomethicone spray, head louse mortality
Assay type: in vivo
Settings: after 24 hours
Procedure: A comparison test was also carried out between the formulation of Example 1, a compressed air spray similar to that described in Example 1, but containing 100% of cyclomethicone and a control composed of water.
Head lice were obtained from volunteer children using the same procedures outlined above for test 1.
The lice were distributed in groups of twenty onto squares of open mesh nylon gauze as a support substrate. Each group was placed on 90 millimetre plastic Petri dish.
Each square (4 cm^2) of gauze with the lice attached was then massaged with approx. 5 ml of the formulation to be tested. This was done on the dry gauze so that the formulations could be used neat. The formulations were then left exposed to the air for the specified exposure time.
After the lice had been exposed to the formulation to be tested for a given exposure time, water was added to the gauze, together with approx. 1 ml of shampoo and the gauze was massaged once more to produce a satisfactory foam. The gauze was then rinsed three times with 250 ml of warm tap water (34° C.) poured over and through the gauze squares. The gauze was then blotted dry with medical wipe tissue and incubated under normal maintenance conditions in clean plastic Petri dishes of appropriate dimensions until the results were recorded. […]

SMILES: CC(=O)Oc1c(C)c(C)c2c(c1C)CCC(C)(CCC[C@H](C)CCC[C@H](C)CCCC(C)C)O2 (stereo partly drawn) [vitamin E acetate, d,l-alpha-Tocopherol acetate]
- effect on the lice (inferred from Example 1 vs 100% cyclomethicone spray): significant effect
